{"source": "patent US12514851B2", "about": "“Use of 2,3,5-substituted thiophene compound for preventing, ameliorating, or treating ovarian cancer” (PHAROS IBIO CO., LTD, priority 2020, dated 2026)", "assay_type_in_all_cases": "cell-based", "key": {"[1]": {"system": "SW626 ovarian cancer cell line", "assay": "Inhibitory activity against ovarian cancer cell lines, agents alone (Celltiter glo cell viability)", "procedure": "(§5) In 100-mm culture dishes (SPL) at 37° C. under 5% CO2, the CAOV3 ovarian cancer cell line was cultured using DMEM (Dulbeco's Modified Eagle Medium), and the OVCAR3, SK-OV-3 and SW626 ovarian cancer cell lines were cultured using RPMI1640 medium. Thereafter, each cell line was diluted to 3,000 cells/80 μl using PBS (phosphate-buffered saline) (Biosesang).\n(§6) After incubation, the cells were counted using a Celltiter glo assay kit (Promega), and cell viability was measured by expressing the cell count as a percentage relative to that of a control group not treated with PHI-101 or the anticancer agent."}, "[2]": {"system": "SK-OV-3 ovarian cancer cell line", "assay": "Inhibitory activity against ovarian cancer cell lines, agents alone (Celltiter glo cell viability)", "conditions": "SK-OV3", "procedure": "as §5, §6"}, "[3]": {"system": "OVCAR3 ovarian cancer cell line", "assay": "Inhibitory activity against ovarian cancer cell lines, agents alone (Celltiter glo cell viability)", "procedure": "as §5, §6"}, "[4]": {"system": "SK-OV3 ovarian cancer cell line", "assay": "Synergistic effect of PHI-101 and olaparib (Celltiter glo viability, Combination Index by CalcuSyn)", "conditions": "Homo sapiens, SK-OV-3, Table 7, combination index experiment, 72 hours", "experimental": "(§1) In order to establish the concentrations of PHI-101 and olaparib which are in an integer ratio in the combination index experiment, based on the IC50 value of olaparib relative to the relatively low IC50 value (1×) of PHI-101, the integer ratio between PHI-101 and olaparib was obtained as shown in Table 4 below.\n(§2) Each prepared 10× solution was serially diluted at 1:2 in each of six E-tubes, each containing 150 μl of medium. Then, a PHI-101 96-well plate (FIG. 4) and an olaparib 96-well plate (FIG. 5) were prepared separately, and 30 μl of the serially diluted PHI-101 or olaparib was dispensed into each well of the corresponding plate. 30 μl of medium was dispensed into each well not containing the substance.\n(§3) Then, each well was incubated at 37° C. under 5% CO2 for 72 hours, and each experiment was performed in triplicate.\n(§4) Next, using the CalcuSyn software and based on the Combination Index (CI) shown in Table 8, the CI for each ovarian cancer cell line depending on the treatment concentrations of PHI-101 and olaparib was calculated, and whether there was synergism between the substances was evaluated."}, "[5]": {"system": "OVCAR3 ovarian cancer cell line", "assay": "Synergistic effect of PHI-101 and olaparib (Celltiter glo viability, Combination Index by CalcuSyn)", "conditions": "Homo sapiens, OVCAR-3, Table 7, combination index experiment, 72 hours", "experimental": "as §1, §2, §3, §4"}, "[6]": {"system": "CAOV3 ovarian cancer cell line", "assay": "Synergistic effect of PHI-101 and olaparib (Celltiter glo viability, Combination Index by CalcuSyn)", "conditions": "Homo sapiens, Caov-3, Table 7, combination index experiment, 72 hours", "experimental": "as §1, §2, §3, §4"}, "[7]": {"system": "TP53-mutant ovarian cancer cell lines", "assay": "Selective inhibitory activity against TP53-mutant ovarian cancer cell lines", "conditions": "TP53-mutant versus non-mutant ovarian cancer cell lines (Table 2)", "excerpt": "In order to evaluate the selective inhibitory activity of PHI-101, the characteristics of each cell line and the inhibitory activity of PHI-101 against ovarian cancer cell lines were investigated as shown in Table 2 below."}, "[8]": {"system": "CAOV3 ovarian cancer cell line", "assay": "Inhibitory activity against ovarian cancer cell lines, agents alone (Celltiter glo cell viability)", "procedure": "as §5, §6"}, "[9]": {"conditions": "Homo sapiens, agent alone, 72 hours"}, "[10]": {"conditions": "Homo sapiens, SK-OV-3, agent alone, 72 hours"}, "[11]": {"conditions": "Homo sapiens, OVCAR-3, agent alone, 72 hours"}, "[12]": {"conditions": "Homo sapiens, Caov-3, agent alone, 72 hours"}}}
{"molecule": "NC(=O)Nc1cc(C#Cc2cccc(F)c2)sc1C(=O)N[C@H]1CCCNC1", "note": "[PHI-101, (S)-5-((3-fluorophenyl)ethynyl)-N-(piperidin-3-yl)-3-ureido thiophene-2-carboxamide]", "values": [{"measurement": "IC50", "setting": "[1]; Homo sapiens, Table 4, values used to establish treatment starting concentrations", "value": 3.64, "unit": "µM"}, {"measurement": "IC50", "setting": "[1]; [9]", "value": 3.6, "unit": "µM"}, {"measurement": "IC50", "setting": "[2]; Homo sapiens, SK-OV-3, Table 4, values used to establish treatment starting concentrations", "value": 5.6, "unit": "µM"}, {"measurement": "IC50", "setting": "[2]; [10]", "value": 5.6, "unit": "µM"}, {"measurement": "IC50", "setting": "[3]; Homo sapiens, OVCAR-3, Table 4, values used to establish treatment starting concentrations", "value": 2.76, "unit": "µM"}, {"measurement": "IC50", "setting": "[3]; [11]", "value": 2.7, "unit": "µM"}, {"measurement": "IC50", "setting": "[4]", "value": 4.39, "unit": "µM"}, {"measurement": "IC50", "setting": "[5]", "value": 3.5, "unit": "µM"}, {"measurement": "IC50", "setting": "[6]", "value": 0.873, "unit": "µM"}, {"measurement": "selective inhibitory activity", "setting": "[7]", "value": "better inhibitory activity against the TP53-mutant ovarian cancer cell lines"}, {"measurement": "IC50", "setting": "[8]; Homo sapiens, Caov-3, Table 4, values used to establish treatment starting concentrations", "value": 0.523, "unit": "µM"}, {"measurement": "IC50", "setting": "[8]; [12]", "value": 0.5, "unit": "µM"}]}
{"molecule": "CC(=O)O[C@H]1C(=O)[C@@]2(C)[C@H]([C@H](OC(=O)c3ccccc3)[C@]3(O)C[C@H](OC(=O)[C@H](O)[C@@H](NC(=O)c4ccccc4)c4ccccc4)C(C)=C1C3(C)C)[C@]1(OC(C)=O)CO[C@@H]1C[C@@H]2O", "note": "[Paclitaxel, paclitaxel]", "values": [{"measurement": "IC50", "setting": "[1]; [9]", "value": 29.8, "unit": "µM"}, {"measurement": "IC50", "setting": "[2]; [10]", "value": 114, "unit": "µM"}, {"measurement": "IC50", "setting": "[3]; [11]", "value": 5.7, "unit": "µM"}, {"measurement": "IC50", "setting": "[8]; [12]", "value": 3.6, "unit": "µM"}]}
{"molecule": "O=C(c1cc(Cc2n[nH]c(=O)c3ccccc23)ccc1F)N1CCN(C(=O)C2CC2)CC1", "note": "[Olaparib, olaparib]", "values": [{"measurement": "IC50", "setting": "[1]; [9]", "value": 147, "unit": "µM"}, {"measurement": "IC50", "setting": "[2]; [10]", "value": 114, "unit": "µM"}, {"measurement": "IC50", "setting": "[3]; [11]", "value": 96.5, "unit": "µM"}, {"measurement": "IC50", "setting": "[4]", "value": 114, "unit": "µM"}, {"measurement": "IC50", "setting": "[5]", "value": 96.5, "unit": "µM"}, {"measurement": "IC50", "setting": "[6]", "value": 59.7, "unit": "µM"}, {"measurement": "IC50", "setting": "[8]; [12]", "value": 59.7, "unit": "µM"}]}
{"molecule": "N.N.[Cl][Pt][Cl]", "note": "[Cisplatin, cisplatin]", "values": [{"measurement": "IC50", "setting": "[1]; agent alone, 72 hours", "value": 8, "unit": "µM"}, {"measurement": "IC50", "setting": "[2]; agent alone, 72 hours", "value": 12.3, "unit": "µM"}, {"measurement": "IC50", "setting": "[3]; agent alone, 72 hours", "value": 4.4, "unit": "µM"}, {"measurement": "IC50", "setting": "[8]; agent alone, 72 hours", "value": 3.5, "unit": "µM"}]}
{"molecule": "CC[C@@]1(O)C(=O)OCc2c1cc1n(c2=O)Cc2cc3c(CN(C)C)c(O)ccc3nc2-1", "note": "[Topotecan, topotecan]", "values": [{"measurement": "IC50", "setting": "[1]; [9]", "value": 14.4, "unit": "µM"}, {"measurement": "IC50", "setting": "[2]; [10]", "value": 3.7, "unit": "µM"}, {"measurement": "IC50", "setting": "[3]; [11]", "value": 8.3, "unit": "µM"}, {"measurement": "IC50", "setting": "[8]; [12]", "value": 3.9, "unit": "µM"}]}
{"molecule": "COc1cccc(OCCCN)c1-c1cc(Nc2cnc(C#N)cn2)n[nH]1", "note": "[Prexasertib, prexasertib]", "values": [{"measurement": "IC50", "setting": "[3]; [11]", "value": 6.3, "unit": "µM"}]}
